This is an account of results in patent US20210179578A1, “OX1 ANTAGONISTS” (Heptares Therapeutics Limited, priority 2017, published 2021).

A value given as a limit tells only on which side of the number the result lay.

Assay [1] deals with T1, human OX1 receptor (Homo sapiens, UniProt O43613).
T1 sequence (O43613 1-425): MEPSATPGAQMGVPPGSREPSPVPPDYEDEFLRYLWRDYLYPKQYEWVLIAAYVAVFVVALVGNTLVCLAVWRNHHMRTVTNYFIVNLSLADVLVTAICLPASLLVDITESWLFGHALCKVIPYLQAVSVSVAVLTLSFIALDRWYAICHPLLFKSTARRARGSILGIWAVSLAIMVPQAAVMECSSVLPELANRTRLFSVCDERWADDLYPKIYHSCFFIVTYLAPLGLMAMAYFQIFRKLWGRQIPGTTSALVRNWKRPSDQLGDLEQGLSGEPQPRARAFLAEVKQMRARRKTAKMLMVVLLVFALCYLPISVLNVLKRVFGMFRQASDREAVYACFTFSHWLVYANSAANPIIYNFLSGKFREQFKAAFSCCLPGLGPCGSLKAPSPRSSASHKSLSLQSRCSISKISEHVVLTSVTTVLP
Kind of assay: [3H]-radioligand binding assay, OX1. More on the design: made in house; host or cells: SF21 insect cells (baculovirus; P0 virus made in SF9). Particulars: [3H]-radioligand binding, human OX1 membranes; read-out: pKi average OX1 (converted). In a few lines:
(§1)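 Membranes from baculovirus-infected SF21 cells expressing human OX1 (6.4 μg protein/well) or OX2 (1.4 μg/well) were incubated 90 min at rt in HEPES pH 7.4 saline buffer with a [3H]-benzothiadiazinone dioxide radioligand, then filtered and counted. NSB defined with 3.33 μM benzoxazolyl-diazepane methanone; Ki from IC50 by Cheng-Prusoff.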

In assay [2] the target is T2, human OX2 receptor (Homo sapiens, UniProt O43614).
T2 sequence (O43614 1-444): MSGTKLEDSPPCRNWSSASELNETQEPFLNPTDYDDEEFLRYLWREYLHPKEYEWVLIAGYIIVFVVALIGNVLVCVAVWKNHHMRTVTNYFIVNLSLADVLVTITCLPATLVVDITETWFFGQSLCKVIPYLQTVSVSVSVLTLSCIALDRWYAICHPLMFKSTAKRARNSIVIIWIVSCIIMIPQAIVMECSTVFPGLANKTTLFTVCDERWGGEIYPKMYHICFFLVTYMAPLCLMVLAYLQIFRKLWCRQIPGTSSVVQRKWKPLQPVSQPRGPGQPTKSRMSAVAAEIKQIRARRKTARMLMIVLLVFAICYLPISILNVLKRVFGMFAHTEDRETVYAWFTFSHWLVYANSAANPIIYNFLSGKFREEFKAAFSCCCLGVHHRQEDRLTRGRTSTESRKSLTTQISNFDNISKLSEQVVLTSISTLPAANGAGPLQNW
In words: [3H]-radioligand binding assay, OX2. Also on record: made in house; host or cells: SF21 insect cells (baculovirus; P0 virus made in SF9). Particulars: [3H]-radioligand binding, human OX2 membranes; read-out: pKi average OX2 (converted). The method in brief: as §1

With `Cc1ncc(C2CCc3c(F)cccc3N(Cc3c(F)cc(Br)cc3F)C2=O)cc1C(C)(F)F` (single isomer, unassigned) [Example 35, 1-(4-bromo-2,6-difluorobenzyl)-3-[5-(1,1-difluoroethyl)-6-methylpyridin-3-yl]-6-fluoro-1,3,4,5-tetrahydro-2H-1-benzazepin-2-one], the values for the Ki in assay [1] and in assay [2] were 2 nM and above 126 nM, respectively.
For `CCCc1cc(F)c(CN2C(=O)N(c3cnc(C)c(C(C)(F)F)c3)CCc3c(F)cccc32)c(F)c1` [Example 34, 3-[5-(1,1-difluoroethyl)-6-methylpyridin-3-yl]-1-(2,6-difluoro-4-propylbenzyl)-6-fluoro-1,3,4,5-tetrahydro-2H-1,3-benzodiazepin-2-one], in that order: 1.58 nM and above 251 nM.
For `Cc1ncc(C2CCc3c(F)cccc3N(Cc3c(F)cc(Br)cc3F)C2=O)cc1C(C)(F)F` (single isomer, unassigned) [Example 36, 1-(4-bromo-2,6-difluorobenzyl)-3-[5-(1,1-difluoroethyl)-6-methylpyridin-3-yl]-6-fluoro-1,3,4,5-tetrahydro-2H-1-benzazepin-2-one], in that order: 0.631 nM and 200 nM.
For `COc1ccc(CN2C(=O)N(c3cnc(OC)c(C(C)(F)F)c3)CCc3c(F)cccc32)c(F)c1` [Example 4, 3-[5-(1,1-difluoroethyl)-6-methoxypyridin-3-yl]-6-fluoro-1-(2-fluoro-4-methoxybenzyl)-1,3,4,5-tetrahydro-2H-1,3-benzodiazepin-2-one], in that order: 0.794 nM and 63.1 nM.
With `Cc1ncc(C2CCc3c(F)cccc3N(Cc3c(F)cc(Br)cc3F)C2=O)cc1S(C)(=O)=O` (single isomer, unassigned) [Example 39, 1-(4-bromo-2,6-difluorobenzyl)-6-fluoro-3-[6-methyl-5-(methylsulfonyl)pyridin-3-yl]-1,3,4,5-tetrahydro-2H-1-benzazepin-2-one], the Ki is 1.26 nM in assay [1] and above 501 nM in assay [2].
Turning to `Cc1ccc(N2CCc3c(F)cccc3N(Cc3c(F)cc(Br)cc3F)C2=O)cc1S(C)(=O)=O` [Example 27, 1-(4-bromo-2,6-difluorobenzyl)-6-fluoro-3-[4-methyl-3-(methylsulfonyl)phenyl]-1,3,4,5-tetrahydro-2H-1,3-benzodiazepin-2-one], the values for the Ki in assay [1] and in assay [2] were 1.58 nM and above 316 nM, respectively.
Regarding `Cc1cc(C)c(S(C)(=O)=O)cc1N1CCc2c(F)cccc2N(Cc2c(F)cc(Br)cc2F)C1=O` [Example 31, 1-(4-bromo-2,6-difluorobenzyl)-3-[2,4-dimethyl-5-(methylsulfonyl)phenyl]-6-fluoro-1,3,4,5-tetrahydro-2H-1,3-benzodiazepin-2-one], the results for the Ki in assay [1] and in assay [2] were 1.26 nM and 200 nM, respectively.
